Source: US20040229268A1, “Method and kit for identifying antibiotic-resistant microorganisms” (priority 2003, published 2004)

How the values were obtained:
[1] = test system: mecA gene; Staphylococcus ribosomal nucleic acids; assay: HPA after thermal lysis, base hydrolysis and neutralization (Examples 5-7); format: binding, S. aureus
Protocol: The cultured S. aureus specimens were lysed by suspending 1 μl loops of bacteria in 150 μl of lysis buffer and then incubating at 105° C. for 15 minutes. Next, 100 μl of 2 N LiOH base solution was added and RNA was hydrolyzed by incubating the mixtures at 60° C. for 15 minutes. Hydrolyzed samples were neutralized by the addition of 100 μl of a neutralizing reagent that included 2 N HCl and 100 mM succinate buffer (pH 5.5 prior to acidification with HCl). Specifically hybridized probe was detected by standard HPA, essentially as described in Example 1.
Specimens (1 μl loops of bacteria) were treated and tested essentially as described in Example 5 with the following differences: incubation for lysis was for 15 minutes and incubation for hybridization was for 45 minutes for samples shown in Tables 7-8, while incubation for lysis was for 10 minutes and incubation for hybridization was for 20 minutes for samples shown in Table 9. All of the base-treated solutions were neutralized by the addition of 250 μl of 0.8 N HCl containing 100 mM succinate.
2′-methoxy analogs of the AE-labeled DNA probes were prepared by standard phosphoramidite synthesis using 2′ methoxy phosphoramidite analogs. Additional linker positions, which are indicated by parentheses in Table 11, for probe 2 were also prepared for testing. Deoxy probes and 2′-methoxy probe analogs were tested essentially as described in Example 5, except as noted below. Probes synthesized using 2′-methoxy nucleotide analogs are particularly identified by the “MeO” designations. Brief summaries of the procedures used to obtain the results are appended to the tables.

[2] = test system: VanA and VanB gene sequences; assay: HPA for detecting VanA and VanB gene sequences (Example 12); format: binding, E. faecalis, E. faecium
Protocol: Double-stranded plasmids harboring inserts of either VanA or VanB gene sequences were prepared for use as control templates. More specifically, VanA gene sequences were amplified in a PCR protocol using primers having the sequences of VanA(+)464 Kpn and VanA(−)1325Bam. Similarly, VanB gene sequences were amplified using primers having the sequences of VanB(+)084 Kpn and VanB(−)1006Bam. Genomic DNA samples from bacteria known to have VanA or VanB genotypes were used as templates in the amplification reactions. Blunt-ended amplification products containing VanA gene sequences were ligated into a pPCR-[…] SK(+) (Stratagene; La Jolla, Calif.) plasmid cloning vector, and propagated in E. coli host bacteria using procedures that will be familiar to those having an ordinary level of skill in the art. Double-stranded amplification products containing VanB gene sequences were first digested with KpnI and BamHI, and then ligated into a similarly cleaved pBLUESCRIPT-II KS(+) (Stratagene; La Jolla, Calif.) plasmid cloning vector. Isolated double-stranded plasmid DNA served as controls in hybridization assays.
2′-deoxy probes having the sequences presented under Example 10 were prepared by standard phosphoramidite synthesis. AE labeling of the probes also was performed using standard procedures, as described herein and as will be familiar to those having an ordinary level of skill in the art. Samples of four different cultured VRE bacteria described under the previous Example were lysed essentially as described above. RNA in the samples was hydrolyzed and DNA denatured by incubation of the lysate with hydroxide at elevated temperature. In parallel procedures, samples of two plasmid clones harboring either the VanA or VanB inserts (as described under the previous Example) were also treated to denature DNA. All samples were neutralized by addition of a buffered HCl reagent. AE-labeled probes were added to each of the samples and then hybridized at 55-60° C. for 45 minutes to permit formation of complementary probe:target duplexes. The pan-bacterial probe (Probe Reagent 1, GEN-PROBE® MTC-NI Kit, catalog no. 4573) described under Example 2 was used as a positive control to confirm the presence of bacterial nucleic acid targets. Trials containing labeled probe in the absence of an added target (i.e., “probe alone”) served as negative controls. The AE label joined to probe molecules that remained single-stranded following the hybridization procedure were destroyed by treatment under mild alkaline conditions, and the extent of specific hybrid formation quantified by luminometry as described in the foregoing Examples.

[3] = ATCC 51299 (VanB), E. faecalis lysate
[4] = ATCC 51575 (VanB), E. faecalis lysate
[5] = ATCC 700221 (VanA), E. faecium lysate
[6] = ATCC 700802 (VanB), E. faecalis lysate
[7] = samples containing nucleic acids from VanB-positive VRE bacteria
[8] = Table 8, lysis 15 minutes, hybridization 45 minutes
[9] = Table 9, lysis 10 minutes, hybridization 20 minutes
[10] = Table 10, neutralize 100 μl 2 N HCl containing 200 mM succinate, hybridize 45 minutes at 60° C.
[11] = samples containing nucleic acids from the single VanA-positive bacterial isolate
[12] = Table 7, lysis 15 minutes, hybridization 45 minutes
[13] = Table 11, neutralize 250 μl 0.8 N HCl containing 100 mM succinate, hybridize 45 minutes at 60° C.

Row | Substance | Probe Hybridization (in RLU) [2, 3] | Probe Hybridization (in RLU) [2, 4] | Probe Hybridization (in RLU) [2, 5] | Probe Hybridization (in RLU) [2, 6] | Probe Hybridization (in RLU) ([2]; Probe Alone (no added target)) | Probe Hybridization (in RLU) ([2]; VanA clone (plasmid)) | Probe Hybridization (in RLU) ([2]; VanB clone (plasmid)) | GP1217(Pos) RLU [1, 9] | Probe alone Avg RLU [1, 9] | also measured
1 | CCACTCAAGAGAGACAACATTTTCGACTAC (chemistry not given here) [S. aureus probe with helpers] | – | – | – | – | – | – | – | – | – | RLU ([1]; Table 6, GP18(Neg), MSSA ATCC #12600): 148,780 RLU; RLU ([1]; Table 6, GP1214(Neg), MSSA ATCC #29247): 203,725 RLU; RLU ([1]; Table 6, GP1217(Pos), MRSA ATCC #33591): 199,476 RLU; RLU ([1]; Table 6, GP1218(Pos), MRSA ATCC #43866): 163,825 RLU
2 | CCAAGCACCCGATATACTTTCTTTGCC (DNA, backbone and methylation of C not given here; further chemistry not fully specified; listed as Enterococcus faecalis) [VanB(−)1006] | 8335 RLU | 6300 RLU | 1485 RLU | 9116 RLU | 586 RLU | 1708 RLU | 27493 RLU | – | – | hybridization signal (in words) [2, 7]: very strong signals
3 | CGGACGTTCAGTCATTTCTACTTCACCATTATCGC (DNA, backbone and methylation of C not given here; acridinium ester label on internal non-nucleotide linker; listed as Staphylococcus aureus) [probe 4] | – | – | – | – | – | – | – | 34352 RLU | 734 RLU | GP18(Neg) RLU [1, 8]: 641 RLU; GP1217(Pos) RLU [1, 8]: 20192 RLU; Probe alone Avg RLU [1, 8]: 690 RLU
4 | MeO-probe 2: 2′-methoxy analog of AE-labeled probe 2 (SEQ ID NO:2); linker position not printed in Table 10 (DNA CGCTATGATCCCAATCTAACTTCCACATACC; all 2'-O-methyl, backbone and T or U not given here; acridinium ester label on internal non-nucleotide linker; listed as Staphylococcus aureus) | – | – | – | – | – | – | – | – | – | GP1214(Neg) RLU [1, 10]: 5242 RLU; GP1217(Pos) RLU [1, 10]: 69687 RLU; Probe alone Avg RLU [1, 10]: 2378 RLU
5 | GGGTTGCTCAGAGGAGCATGACGTATCGG (DNA, backbone and methylation of C not given here; further chemistry not fully specified; listed as Enterococcus faecium) [VanA(+)464] | 765 RLU | 696 RLU | 10910 RLU | 757 RLU | 374 RLU | 37434 RLU | 817 RLU | – | – | hybridization signal (in words) [2, 11]: very strong hybridization signals
6 | CGATTGTGACACGATAGCCATCTTCATGTTGGAGC (DNA, backbone and methylation of C not given here; acridinium ester label on internal non-nucleotide linker; listed as Staphylococcus aureus) [probe 6] | – | – | – | – | – | – | – | 55947 RLU | 1004 RLU | GP18(Neg) RLU [1, 12]: 1195 RLU; GP1217(Pos) RLU [1, 12]: 38158 RLU; Probe alone Avg RLU [1, 12]: 6117 RLU; GP1214(Neg) RLU [1, 13]: 1994 RLU; GP1217(Pos) RLU [1, 13]: 43307 RLU; Probe alone Avg RLU [1, 13]: 1540 RLU
7 | GCTCCAACATGAAGATGGCTATCGTGTCACAATCG (DNA, backbone and methylation of C not given here; acridinium ester label on internal non-nucleotide linker; listed as Staphylococcus aureus) [probe 5] | – | – | – | – | – | – | – | 42816 RLU | 2823 RLU | GP18(Neg) RLU [1, 12]: 1250 RLU; GP1217(Pos) RLU [1, 12]: 37472 RLU; Probe alone Avg RLU [1, 12]: 4088 RLU
8 | CGTTCAGTACAATGCGGCCG (DNA, backbone and methylation of C not given here; further chemistry not fully specified; listed as Enterococcus faecium) [VanA(−)1325] | 1182 RLU | 1761 RLU | 23523 RLU | 931 RLU | 368 RLU | 24378 RLU | 942 RLU | – | – | hybridization signal (in words) [2, 11]: very strong hybridization signals
9 | CCGCAGCTTGCATGGACAAATCACTGGC (DNA, backbone and methylation of C not given here; further chemistry not fully specified; listed as Enterococcus faecalis) [VanB(+)084] | 7863 RLU | 6003 RLU | 768 RLU | 10119 RLU | 371 RLU | 716 RLU | 54711 RLU | – | – | hybridization signal (in words) [2, 7]: very strong signals
10 | GCGATAATGGTGAAGTAGAAATGACTGAACGTCCG (DNA, backbone and methylation of C not given here; acridinium ester label on internal non-nucleotide linker; listed as Staphylococcus aureus) [probe 3] | – | – | – | – | – | – | – | 46566 RLU | 684 RLU | GP18(Neg) RLU [1, 8]: 371 RLU; GP1217(Pos) RLU [1, 8]: 36123 RLU; Probe alone Avg RLU [1, 8]: 445 RLU; GP1214(Neg) RLU [1, 13]: 1303 RLU; GP1217(Pos) RLU [1, 13]: 36993 RLU; Probe alone Avg RLU [1, 13]: 1098 RLU
11 | GCTGAGCTTTGAATATCGCAGCC (AE label linker 8/9, chemistry not fully specified; listed as Enterococcus faecium) [VanA(−)792] | 2983 RLU | 2254 RLU | 10627 RLU | 3653 RLU | 256 RLU | 52729 RLU | 505 RLU | – | – | background-corrected hybridization signal relative to negative control (fold greater than background) ([2]; VanA-positive bacterial sample ATCC # 700221): about 40 fold; background-corrected hybridization signal relative to negative control (fold greater than background) ([2]; average over VanB-positive bacterial samples ATCC Nos. 51575, 700802 and 51299): about 10.5 fold; hybridization signal (in words) [2, 11]: very strong hybridization signals
12 | CGCATCCATCAGGAAAACGAGCCGG (DNA, backbone and methylation of C not given here; acridinium ester (AE) label attached via linker; listed as Enterococcus faecalis) [VanB(+)428] | 8113 RLU | 6307 RLU | 683 RLU | 9657 RLU | 370 RLU | 684 RLU | 49242 RLU | – | – | hybridization signal (in words) [2, 7]: very strong signals
